In PubChem BioAssay AID1902 (Broad Institute, 2009):
Calls of active or inactive are those of the source.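 The calls were made as follows: active = EC50 no more than a set limit of log units above the highest dose; inactive = the rest.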

target: S. pyogenes SKKanGAS, kanamycin survival, BacTiterGlo, 6 h; experiment: S. pyogenes SKKanGAS kanamycin growth inhibitors – SKKanGAS strain, luminescence, dose confirmation, streptokinase promoter inhibitor project, dose response (AID 1902);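 also: lower survival reflects blocked streptokinase promoter driving kanamycin resistance gene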

Structure (SMILES) | EC50
O[C@@H]1CCCN2CCc3c([nH]c4ccccc34)[C@H]12 | > 15 µM (inactive)
Nc1c(-c2ccccc2)c(CSc2nc3ccccc3[nH]2)nn1-c1cccc(Cl)c1 | 1.51 µM
Cc1nc(N/N=C\c2ccc3c(c2)OCO3)sc1C | 4.63 µM
CC1(C)CC(=O)C2=C(C1)c1c(ccc3ccccc13)NC2c1cc([N+](=O)[O-])cc([N+](=O)[O-])c1O (stereo unspecified) | 4.55 µM
O=C(C[n+]1cnn(CC(=O)c2ccc(Cl)cc2Cl)c1)c1ccc([N+](=O)[O-])cc1 | 12.3 µM
Cc1nn(-c2ccccc2)c(C)c1/C=N/Nc1nc2ccccc2[nH]1 | 9.71 µM
CCCCSc1nc(C)cc(SCC(=O)N/N=C/c2cccc(OC)c2O)n1 | 2.14 µM
O=C(CNC(=O)c1ccco1)NCc1nc2ccccc2[nH]1 | > 15 µM (inactive)
CCOc1cc(/C=C\[N+](=O)[O-])ccc1OCC(=O)Nc1ccccc1C | 9.44 µM
COc1ccc(CCN2CC(C(=O)NCCc3ccccn3)CCC2=O)cc1 (stereo unspecified) | > 15 µM (inactive)
Oc1ccccc1-c1nc2c3ccccc3c3ccccc3c2[nH]1 | 2.43 µM
COc1ccc(C(=O)NC(=S)NNC(=O)c2ccccc2C)cc1 | 1.49 µM
Cc1cccc(C(=O)NC(C(=O)Nc2nc(-c3ccccn3)cs2)C(C)C)c1 (stereo unspecified) | 5.46 µM
CC(C)(C)c1ccc(C(=O)NC(=S)NNC(=O)COc2ccccc2)cc1 | < 0.06 µM
Cc1cc(NC(=O)c2cnccn2)no1 | > 15 µM (inactive)
COc1ccc(-c2nnc(NC(=O)c3cc(Cl)ccc3Cl)o2)cc1 | 0.814 µM
CCC(=O)Nc1nc2ccccc2n1Cc1ccccc1Cl | 8.22 µM
Cc1ccccc1NC(=O)NCCCCc1ccccc1 | > 15 µM (inactive)
O=C(Oc1c(Cl)cc(Cl)c2cccnc12)c1cccs1 | 1.08 µM
Cc1ccccc1CN1CCCN(Cc2ccc(Cl)cc2)S1(=O)=O | 4.05 µM
CCCN(CC(=O)Nc1cc(Cl)cc(Cl)c1)CC(=O)Nc1ccc(F)c(F)c1F | 4.87 µM
Cc1ccc2c(Cl)cc(Cl)c(OCC(=O)NC(C)(C)C)c2n1 | 3.14 µM

Structure (SMILES) | EC50
O=C(c1cccs1)N1N=C(c2ccccc2)CC1c1ccccc1 (stereo unspecified) | 6.41 µM
Cc1cn(-c2cc(C(=O)Nc3ccc(C)c(NC(=O)C(=O)c4c[nH]c5ccccc45)c3)cc(C(F)(F)F)c2)cn1 | 2.78 µM
O=C(Nc1nc(-c2ccccn2)cs1)c1ncc(Cl)c(Cl)c1Cl | 0.771 µM
Cc1nn(-c2ccccc2)c(Cl)c1/C=N/Nc1ccc(S(=O)(=O)Nc2ccccc2C(=O)O)cc1[N+](=O)[O-] | 1.29 µM
CC1CN(Cc2nc3c(c(=O)[nH]c(=O)n3C)n2CCCc2ccccc2)CC(C)O1 (stereo unspecified) | > 15 µM (inactive)
O=C1/C(=C/c2cccnc2)SC(=NCc2ccccc2)N1Cc1ccccc1 | 8.09 µM
CC(C)C(=O)NC(c1ccco1)c1ccc2cccnc2c1O (stereo unspecified) | 2.44 µM
O=C(Cc1cccs1)N/N=C/c1ccco1 | 2.9 µM
Cc1ccc(/C=C2/Sc3ccc(C(=O)N4CCN(C)CC4)cc3NC2=O)cc1 | 13.4 µM
Cn1c(-c2cc(Br)ccc2O)n[nH]c1=S | 9.92 µM
CN1C(=O)NC(c2ccccc2)(C(F)(F)F)S/C1=C(/C#N)c1nnc(N2CCOCC2)n1-c1ccccc1 (stereo unspecified) | > 15 µM (inactive)
COc1ccccc1NC(=O)C(=O)NNC(=O)COc1ccc2ccccc2c1 | 2.2 µM
O=C(CSc1nc2ccccc2c(=O)n1NC(=O)c1ccccc1)c1ccc(Cl)cc1 | 11.3 µM
O=C(Oc1cccc(/C=N/Nc2nc(Nc3ccccc3)nc(N3CCOCC3)n2)c1)c1ccco1 | 2.03 µM
Cc1cc(N2C(=O)C(O)=C(C(=O)c3cc4ccccc4o3)C2c2ccc(Br)cc2)no1 (stereo unspecified) | 1.24 µM
CC1(C)S[C@@H]2[C@H](NC(=O)C(NC(=O)N3CCNC3=O)c3ccccc3)C(=O)N2[C@H]1C(=O)O (stereo partly specified) | < 0.06 µM
Nc1nc(Nc2cccc(Cl)c2)nc(NCc2ccco2)c1[N+](=O)[O-] | 7.92 µM
Oc1c(C(Nc2nc3ccccc3s2)c2ccco2)ccc2cccnc12 (stereo unspecified) | 2.98 µM
C[C@H]1[C@H](C)CC[C@]2(C)CC[C@]3(C)C(=CC[C@@H]4[C@@]5(C)CC[C@@H](O)[C@](C)(C(=O)O)[C@@H]5CC[C@]43C)[C@H]12 | 0.997 µM
COc1cccc(-c2nc(N3CC(C)CC(C)C3)c3ccccc3n2)c1O (stereo unspecified) | 3.05 µM
O=C(Nc1ccc(OC(F)(F)F)cc1)N1CCN(c2ccnc3cc(Cl)ccc23)CC1 | 9.37 µM
CSc1ccc(/C=C2\CCn3c2nc2cc(C(=O)O)ccc2c3=O)cc1 | 6.15 µM

Structure (SMILES) | EC50
CC(C)c1nc(N2CCCC2)c(C#N)c2c1CCCC2 | 4.1 µM
Oc1cc(OCc2ccccc2)ccc1-c1[nH]ncc1-c1ccccc1 | 3.06 µM
c1ccc(CCNc2nc(-c3ccccn3)cs2)cc1 | 3.71 µM
COc1ccc(C(=O)NNC(=S)NC(=O)c2ccc(Br)o2)cc1OC | 0.779 µM
COC(=O)c1c(NC(NC(=O)C(C)(C)C)C(Cl)(Cl)Cl)sc2c1CCC2 (stereo unspecified) | 3.28 µM
CCCCC(=O)NNC(=S)NC(=O)C(c1ccccc1)c1ccccc1 | 0.188 µM
NC(=S)N=Nc1ccc(NN=C(N)N)cc1 | < 0.06 µM
CCn1nc(C)cc1-c1nnc(Sc2ncc([N+](=O)[O-])s2)n1C | 6.51 µM
Cc1ccc(C(=O)N2CCCC(CCC(=O)NCc3ccccc3F)C2)cn1 (stereo unspecified) | > 15 µM (inactive)
CCN(c1ccccc1)S(=O)(=O)c1ccc(C(=O)Nc2nnc(CSC)o2)cc1 | 3.7 µM
CC(Oc1ccc(Cl)cc1Cl)C(=O)Nc1ccc(S(=O)(=O)Nc2cnc3ccccc3n2)cc1 (stereo unspecified) | 3.88 µM
O=C(Nc1cccc(NC(=O)c2cccnc2)c1)c1ccccc1 | > 15 µM (inactive)
O=C(Nc1ccc(Oc2ccc(Cl)cc2)c(Cl)c1)c1cc(I)cc(I)c1O | < 0.06 µM
C(=N\Nc1ncnc2sc3c(c12)CCC3)/c1cccs1 | 10.2 µM
COc1ccc(S(=O)(=O)NCC2CCCN(Cc3ccc(OC)cc3F)C2)cc1 (stereo unspecified) | > 15 µM (inactive)
NCCCn1c(C(=O)c2cc(Cl)c(N)c(Cl)c2)c2ccc([N+](=O)[O-])cc2[n+]1[O-] | 4.25 µM
CC1(C)CC(=O)C2=C(C1)N=C1c3ccccc3C(=O)C1C2c1ccc(Cl)cc1 (stereo unspecified) | 8.16 µM
CCCOc1ccc(C(=O)NNC(=S)NC(=O)c2ccccc2[N+](=O)[O-])cc1 | 1.8 µM
COC(=O)c1ccc(Cl)c(NC(=O)CSc2nnc(-c3ccncc3)o2)c1 | > 15 µM (inactive)
Clc1cc(CSc2ccccc2)nc(-c2ccccc2)n1 | 8.95 µM
Nc1nc(N)c(C=Nc2ccc(Br)cc2)c(Nc2ccc(Br)cc2)n1 | 1.69 µM
O=C(/C=C/c1ccccc1)c1cc(Br)ccc(=O)c1O | 1.33 µM

Structure (SMILES) | EC50
O=C(NNC(=O)c1ccccc1OCc1ccccc1Cl)c1csc(N2CCOCC2)n1 | 5.04 µM
CCOC(=O)c1sc2ncnc(N3CCN(c4ccc(OC)cc4)CC3)c2c1C | 10.3 µM
Cc1ccc(Cn2c(Cc3ccccc3)nc3ccccc32)cc1 | 14.2 µM
C=CCn1c(N)c(C(=O)Nc2cccc(C)c2)c2nc3ccccc3nc21 | 3.4 µM
Cc1ccc2sc(NNC(=O)c3cc(=O)c4ccccc4o3)nc2c1C | 1.18 µM
CCCSc1nsc(NC(=O)C(c2ccccc2)c2ccccc2)n1 | 3.03 µM
COC(=O)c1ccc(CSc2cc(C)c3cc(C)cc(C)c3n2)o1 | 4.86 µM
O=C1C(Nc2ccccc2)=C/C(=N/S(=O)(=O)c2cccs2)c2ccccc21 | 1.33 µM
CCCCC(CC)CN1C(=O)/C(=C/c2ccncc2)SC1=S (stereo unspecified) | 2.83 µM
Cc1ccc(C(=O)Nc2nnc(C3=COCCO3)o2)cc1C | 2.96 µM
CCOC(=O)c1nnn(-c2nonc2-n2cccc2)c1CN1CCC(C)CC1 | 8.02 µM
C[C@H]1[C@H](C)CC[C@]2(C(=O)O)CC[C@]3(C)C(=CC[C@@H]4[C@@]5(C)CC[C@H](O)C(C)(C)[C@@H]5CC[C@]43C)[C@H]12 | 1.79 µM
Cc1ccccc1C(=O)Nc1nc(=S)ss1 | 2.46 µM
Nc1c(Cl)cc(-c2csc(N3CCCC3c3nc4cc(Cl)c(Cl)cc4n3CCOCCO)n2)cc1Cl (stereo unspecified) | > 15 µM (inactive)
O=C(Nc1nnc(SCc2ccc(F)cc2)s1)c1ccc2c(c1)C(=O)N(c1ccccc1Cl)C2=O | 6.26 µM
Cc1ccc(O)c(C(=O)CC(=O)c2ccc(C(C)(C)C)cc2)c1 | 2.6 µM
CCc1ccc(NC(=O)c2ccc(F)c(S(=O)(=O)NCC3COc4ccccc4O3)c2)cc1 (stereo unspecified) | 5.34 µM
COc1ccc(C2CC(=O)c3cnc(N4CCN(Cc5ccccc5)CC4)nc3C2)cc1 (stereo unspecified) | 13.7 µM
C[C@@H]1CC[C@@]2(OC1)O[C@H]1C[C@H]3[C@@H]4CC=C5C[C@@H](O)[C@H](O)C[C@]5(C)C4CC[C@]3(C)[C@H]1[C@@H]2C (stereo partly specified) | 4.12 µM
O=C(CC1CC2CCC1C2)Nc1nc(-c2ccccn2)cs1 (stereo unspecified) | 2.4 µM
CCCC(=O)NC(c1ccc(Cl)cc1)c1ccc2cccnc2c1O (stereo unspecified) | 7.2 µM
CC(C)OC(=O)c1c(NS(=O)(=O)c2ccccc2)sc2c1CCCC2 | 3.88 µM

Structure (SMILES) | EC50
CC/C(=C(\c1ccccc1)c1ccc(OCCN(C)C)cc1)c1ccccc1 | 6.17 µM
CCC(=O)N1N=C(c2c(O)n(C)c(=O)n(C)c2=O)CC1c1ccccc1 (stereo unspecified) | 2.42 µM
CCCCCn1c(CN2CCN(c3cc(Cl)ccc3C)CC2)nc2c1c(=O)[nH]c(=O)n2C | 2.5 µM
CN1CCN(c2c(F)cc3c(=O)c(C(=O)O)cn4c3c2OCN4C)CC1 | 3.29 µM
CC(/C=C1\SC(=S)N(NS(=O)(=O)c2ccccc2)C1=O)=C\c1ccccc1 | 5.38 µM
COc1ccc(OC)c(N=Cc2c(O)n(Cc3ccccc3)c(=S)[nH]c2=O)c1 | > 15 µM (inactive)
CC1CCN(Cc2c(C(=O)N/N=C/c3cc(Br)ccc3O)nnn2-c2nonc2N)CC1 | 10.2 µM
Cc1noc(C)c1C(=O)Nc1ccc2ccccc2c1 | > 15 µM (inactive)
CC1=NN(/C(=N\c2nnc(C)s2)Nc2ccc(C(C)(C)C)cc2)[C@H](c2ccc(C)cc2)S1 | 7.14 µM
CC(C)c1ccc2[nH]c3c(c2c1)CCC/C3=N\NC(=O)c1ccncc1 | 2.43 µM
O=c1[nH]c2ccc(Cl)cc2c(-c2ccccc2)c1SC(=S)N1CCOCC1 | 0.697 µM
CCCCCCn1c(=O)c(C(=O)Nc2cnccn2)c(O)c2ccccc21 | 2.98 µM
CCCCCCCCCCCCCCCC(O)C(N)CO (stereo unspecified) | 2.2 µM
Cc1cccc(NC(=O)C(=O)NNC(=O)c2ccc(C(C)(C)C)cc2)c1 | 5.41 µM
CCCCN(CCCC)C(=S)N/N=C/c1c(C)[nH]n(-c2ccccc2)c1=O | 0.399 µM
CC1C(=O)C(C)C(c2cc(Cl)ccc2O)NC1c1cc(Cl)ccc1O (stereo unspecified) | 2.32 µM
O=C(Nc1ccc(Br)c(C(F)(F)F)c1)c1ccc(C(F)(F)F)cc1 | 1.86 µM
Cc1nc(-n2[nH]c3c(c2=O)CCCC3)[nH]c(=O)c1Cc1ccccc1 | 1.39 µM
